How the values were obtained:
[1] = Cytotoxicity against human SJ-G2 cells at 100 uM; assay type: functional
NCI-H460 [2] = experiment: Cytotoxicity against human H460 cells at 100 uM; assay type: functional
DU-145 [3] = experiment: Cytotoxicity against human DU145 cells at 100 uM; assay type: functional
Homo sapiens [4] = species on record: Homo sapiens; experiment: Inhibition of Protein phosphatase 1 at 100 uM
HT-29 [5] = experiment: Cytotoxicity against human HT29 cells at 100 uM; assay type: functional
A-431 [6] = experiment: Cytotoxicity against human A431 cells at 100 uM; assay type: functional
Homo sapiens [7] = species on record: Homo sapiens; experiment: Inhibition of Protein phosphatase 2A at 100 uM
SW480 [8] = experiment: Cytotoxicity against human SW480 cells at 100 uM; assay type: functional
MCF7 [9] = experiment: Cytotoxicity against human MCF7 cells at 100 uM; assay type: functional
[10] = Cytotoxicity against human BE2-C cells at 100 uM; assay type: functional; details: BE(2)-C
A2780 [11] = experiment: Cytotoxicity against human A2780 cells at 100 uM; assay type: functional
SW480 [12] = experiment: Cytotoxicity against human SW480 cells; assay type: functional
[13] = Inhibition of Protein phosphatase 2A; parameters: species or system Homo sapiens
DU-145 [14] = experiment: Cytotoxicity against human DU145 cells; assay type: functional
[15] = Cytotoxicity against human BE2-C cells; assay type: functional; details: BE(2)-C
HT-29 [16] = experiment: Cytotoxicity against human HT29 cells; assay type: functional
A-431 [17] = experiment: Cytotoxicity against human A431 cells; assay type: functional
[18] = Inhibition of Protein phosphatase 1; parameters: species or system Homo sapiens
[19] = Cytotoxicity against human SJ-G2 cells; assay type: functional
NCI-H460 [20] = experiment: Cytotoxicity against human H460 cells; assay type: functional
A2780 [21] = experiment: Cytotoxicity against human A2780 cells; assay type: functional
MCF7 [22] = experiment: Cytotoxicity against human MCF7 cells; assay type: functional

| Compound | IC50 [13] | IC50 [18] | inhibition at 100 µM [1] | inhibition at 100 µM (NCI-H460 [2]) | inhibition at 100 µM (DU-145 [3]) | inhibition at 100 µM (HT-29 [5]) | inhibition at 100 µM (A-431 [6]) | inhibition at 100 µM (SW480 [8]) | inhibition at 100 µM (MCF7 [9]) | inhibition at 100 µM [10] | inhibition at 100 µM (A2780 [11]) | GI50 (SW480 [12]) | GI50 (DU-145 [14]) | GI50 [15] | GI50 (HT-29 [16]) | GI50 (A-431 [17]) | GI50 [19] | GI50 (NCI-H460 [20]) | GI50 (A2780 [21]) | GI50 (MCF7 [22]) | also measured |
| --- | --- | --- | --- | --- | --- | --- | --- | --- | --- | --- | --- | --- | --- | --- | --- | --- | --- | --- | --- | --- | --- |
| O=C(NCCc1cnc[nH]1)NC(=O)C1C(C(=O)O)[C@@H]2CC[C@H]1O2 (stereo partly specified) |  |  | 27% | 25% | 14% | 21% | 32% | 33% | 17% | 23% | 20% |  |  |  |  |  |  |  |  |  | inhibition (Homo sapiens [4]): 35%; inhibition (Homo sapiens [7]): 56% |
| O=C1OC(=O)[C@H]2[C@@H]1[C@@H]1CC[C@H]2O1 | 3 µM | 9 µM |  |  |  |  |  |  |  |  |  | 35 µM | 3 µM | 56 µM | 48 µM | 33 µM | 35 µM | 45 µM | 59 µM | 64 µM |  |
| C[C@@]12C(=O)OC(=O)[C@]1(C)[C@H]1CC[C@@H]2O1 [CANTHARIDIN] | 1.2 µM | 11 µM |  |  |  |  |  |  |  |  |  | 4.6 µM | 2.4 µM | 4.9 µM | 3.3 µM | 3.4 µM | 3 µM | 4 µM | 5.8 µM | 7 µM |  |
| C[C@]1(C(=O)O)[C@@H]2CC[C@@H](O2)[C@@]1(C)C(=O)NC(=O)N1CCOCC1 | 0.79 µM | 5.9 µM |  |  |  |  |  |  |  |  |  | 3.9 µM | 1.7 µM | 2.5 µM | 2.8 µM | 2.9 µM | 2.1 µM | 3.3 µM | 4.9 µM | 5.8 µM |  |

Now from value to molecule, other results behind:

| IC50 [13] | IC50 [18] | Compound | inhibition at 100 µM [1] | inhibition at 100 µM (NCI-H460 [2]) | inhibition at 100 µM (DU-145 [3]) | inhibition at 100 µM (HT-29 [5]) | inhibition at 100 µM (A-431 [6]) | inhibition at 100 µM (SW480 [8]) | inhibition at 100 µM (MCF7 [9]) | inhibition at 100 µM [10] | inhibition at 100 µM (A2780 [11]) | GI50 (SW480 [12]) | GI50 (DU-145 [14]) | GI50 [15] | GI50 (HT-29 [16]) | GI50 (A-431 [17]) | GI50 [19] | GI50 (NCI-H460 [20]) | GI50 (A2780 [21]) | GI50 (MCF7 [22]) | also measured |
| --- | --- | --- | --- | --- | --- | --- | --- | --- | --- | --- | --- | --- | --- | --- | --- | --- | --- | --- | --- | --- | --- |
| 7.9 µM | 6.5 µM | O=C(NC(=O)Nc1ccc(N2CCOCC2)cc1)NC(=O)C1C(C(=O)O)[C@@H]2CC[C@H]1O2 (stereo partly specified) | 21% | 19% | 17% | 23% | 21% | 29% | 20% | 13% | 18% |  |  |  |  |  |  |  |  |  |  |
| 43 µM | 31 µM | O=C(NCCN1CCOCC1)NC(=O)C1C(C(=O)O)[C@@H]2CC[C@H]1O2 (stereo partly specified) | 19% | 10% | 17% | 37% | 23% | 14% | 7.5% | 26% | 14% |  |  |  |  |  |  |  |  |  |  |
